Data: patent US11597703B2, “Caspase inhibitors and methods of use thereof” (Histogen Inc., priority 2019, dated 2023)

Assays:
Caspase-1 = molecular target: T1, Caspase-1 (Homo sapiens, UniProt P29466); experiment: Caspase-1 enzyme inhibition assay (Ac-YVAD-pNA substrate), IC50; assay type: biochemical
T1 construct: purchased Enzo Biosciences
T1 sequence (P29466 120-297 limits assumed): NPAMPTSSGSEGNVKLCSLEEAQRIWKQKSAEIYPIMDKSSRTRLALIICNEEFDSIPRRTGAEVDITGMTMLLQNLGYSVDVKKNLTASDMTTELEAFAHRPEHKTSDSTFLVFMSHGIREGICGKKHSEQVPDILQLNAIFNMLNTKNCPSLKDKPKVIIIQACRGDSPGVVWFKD
T1 sequence (P29466 317-404 limits assumed): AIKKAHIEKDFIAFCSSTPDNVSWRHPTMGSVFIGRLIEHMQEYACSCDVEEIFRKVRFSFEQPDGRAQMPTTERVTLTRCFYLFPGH
Procedure, shortened: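 Buffer was 50 mM HEPES pH 7.4, 100 mM NaCl, 0.1% CHAPS, 1 mM EDTA, 10% glycerol and 10 mM DTT. Caspase-1 was reacted with 200 μM Ac-YVAD-pNA (final). Release of p-nitroaniline was followed continuously at 405 nm, and rates were taken from the linear slope (ε 10,500 M-1 cm-1).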

Caspase-3 = molecular target: T2, Caspase-3 (Homo sapiens, UniProt P42574); experiment: Caspase-3 enzymatic inhibition assay, IC50; assay type: biochemical; settings: read-out: Caspase 3 enzyme inhibition IC50
T2 construct: purchased Enzo Biosciences
T2 sequence (P42574 29-175 limits assumed): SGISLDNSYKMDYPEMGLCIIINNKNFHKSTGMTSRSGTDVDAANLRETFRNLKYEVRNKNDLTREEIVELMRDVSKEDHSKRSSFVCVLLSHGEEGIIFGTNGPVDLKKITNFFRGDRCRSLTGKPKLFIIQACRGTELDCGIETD
T2 sequence (P42574 176-277 limits assumed): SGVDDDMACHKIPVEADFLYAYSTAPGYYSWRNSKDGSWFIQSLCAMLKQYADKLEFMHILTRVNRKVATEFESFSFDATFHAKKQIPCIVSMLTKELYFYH
Procedure, shortened: (§1)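 Commercially sourced human caspases. Activity assays followed the maker's instructions for caspase-3, 6 and 7. Potency given as IC50.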

Caspase 6 = molecular target: T3, Caspase 6 (Homo sapiens, UniProt P55212); experiment: Caspase 6 enzymatic inhibition assay, IC50; assay type: biochemical; settings: read-out: Caspase 6 enzyme inhibition IC50
T3 construct: purchased Enzo Biosciences
T3 sequence (P55212 24-179 limits assumed): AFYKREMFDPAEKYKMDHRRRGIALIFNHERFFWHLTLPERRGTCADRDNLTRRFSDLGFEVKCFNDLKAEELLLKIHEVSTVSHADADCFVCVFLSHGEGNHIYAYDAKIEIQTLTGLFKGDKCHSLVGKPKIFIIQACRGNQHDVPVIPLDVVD
T3 sequence (P55212 194-293 limits assumed): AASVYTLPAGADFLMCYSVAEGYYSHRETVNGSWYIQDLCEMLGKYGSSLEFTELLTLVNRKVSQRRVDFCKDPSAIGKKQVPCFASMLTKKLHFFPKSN
Procedure, shortened: as §1

Caspase 7 = molecular target: T4, Caspase 7 (Homo sapiens, UniProt P55210); experiment: Caspase 7 enzymatic inhibition assay, IC50; assay type: biochemical; settings: read-out: Caspase 7 enzyme inhibition IC50
T4 construct: purchased Enzo Biosciences
T4 sequence (P55210 24-198 limits assumed): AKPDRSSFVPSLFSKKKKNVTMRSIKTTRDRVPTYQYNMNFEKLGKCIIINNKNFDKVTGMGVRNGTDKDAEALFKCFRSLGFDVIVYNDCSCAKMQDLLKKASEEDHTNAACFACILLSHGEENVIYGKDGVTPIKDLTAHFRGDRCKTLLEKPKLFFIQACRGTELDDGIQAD
T4 sequence (P55210 207-303 limits assumed): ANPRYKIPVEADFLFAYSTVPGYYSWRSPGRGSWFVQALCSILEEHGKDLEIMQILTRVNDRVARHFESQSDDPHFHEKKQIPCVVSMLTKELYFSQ
Procedure, shortened: as §1

IL-1β = experiment: Inhibition of LPS-stimulated IL-1β in THP-1 cells (ELISA); assay type: cell-based, human; settings: Homo sapiens, 10 micromolar, read-out: Percent Inhibition of IL1-β
Method: Compounds in the present invention were tested in THP-1 cells, a human monocyte cell line, to assess the inhibition of the inflammatory cytokine IL-1β. THP-1 cells (ATCC TIB-202) were grown in culture and seeded in 96 well plates at a concentration of 200,000 cells per well with a total volume of 150 μL. Plated cells were incubated overnight at 37 degrees C. under an atmosphere of 5% CO2. Media was removed from cells which were washed with PBS. Test compounds were diluted in DMSO stock solution and serially diluted appropriately for initial screening and IC50 determinations. LPS in serum free media (140 μL of […]) was added to each well to stimulate IL-1β production. IL-1β was measured by ELISA assay kit (R&D Systems) per the manufacturers instructions.
IC50 values for the inhibition of IL-1 in THP 1 cells were determined from dose response studies.

Jurkat cells = experiment: Prevention of Fas-induced apoptosis in Jurkat cells (WST-8); assay type: cell-based; settings: Homo sapiens, 10 micromolar, read-out: % Prevention of Fas - induced Jurkat cell apoptosis at 10 micromolar
Method: Compounds of the present invention were evaluated in Jurkat cells, a human T-lymphocyte cell line, to evaluate compounds ability to inhibit apoptotic cell death. Jurkat cells, Clone E6-1 (ATCC TIB-152) were grown in culture maintain a cell density between 0.5-2 million cells/mL. Cells were tested for viability and countion with typan blue stain before use. Test compounds were addedd to 96 well plates and Jurkat cells were added at a concentration of approximately 100,000 cells per well and mixed thoroughly by action of pipetting. Plated cells were incubated for 1 hour at 37 degrees C. under an atmosphere of 5% CO2. Anti-Fas antibody was added and mixed by pipet action. Plates were incubated for 20 hours at 37 degrees C. under an atmosphere of 5% CO2. 10 microliters of thawed WST-8 solution was added to each well and incubated for 4 hours. Absorbance was measured at 450 nm and control reading at […] using a SpectraMax ID5 plate reader. Apoptotic cell death is executed by caspases 3, 7 and 6. Compounds that lack activity against these caspases will not prevent the death of Jurkat cells and is a functional test of selectivity for inflammatory over apoptotic caspases.
IC50 values to protect against Fas induced apoptosis and improve survival of Jurkat cells were determined from dose response studies.

| Structure (SMILES) | IC50 (Caspase-1) | IC50 (Caspase-3) | IC50 (Caspase 6) | IC50 (Caspase 7) | inhibition at 10 µM (IL-1β) | inhibition at 10 µM (Jurkat cells) |
| --- | --- | --- | --- | --- | --- | --- |
| O=C(O)CC[C@H](NC(=O)C1(NC(=O)C(=O)Nc2c(F)cccc2F)CCCC1)C(=O)COc1c(F)c(F)cc(F)c1F [Example 14, (S)-4-(1-(2-((2,6-Difluorophenyl)amino)-2-oxoacetamido)cyclopentane-1-carboxamido)-5-oxo-6-(2,3,5,6-tetrafluorophenoxy)hexanoic acid] | ≤ 10 nM | 100 to 1000 nM | 100 to 1000 nM | 100 to 1000 nM | > 90% | ≤ 10% |
| Cc1ccc(NC(=O)C(=O)N[C@@H](C)C(=O)N[C@@H](CCC(=O)O)C(=O)COc2c(F)c(F)cc(F)c2F)cc1 [Example 19, (S)-4-((S)-2-(2-((4-methylphenyl)amino)-2-oxoacetamido)propanamido)-5-oxo-6-(2,3,5,6-tetrafluorophenoxy)hexanoic acid] | ≤ 10 nM | ≥ 1000 nM | ≥ 1000 nM | ≥ 1000 nM | > 90% | ≤ 10% |
| C[C@H](NC(=O)C(=O)Nc1c(F)cccc1F)C(=O)N[C@@H](CCOCc1ccc(Cl)cc1)C(=O)COc1c(F)c(F)cc(F)c1F [Example 3, N^1—((S)-1-(((S)-5-((4-Chlorobenzyl)oxy)-2-oxo-1-(2,3,5,6-tetrafluorophenoxy)pentan-3-yl)amino)-1-oxopropan-2-yl)-N^2-(2,6-difluorophenyl)oxalamide] | 100 to 1000 nM | ≥ 1000 nM | ≥ 1000 nM | ≥ 1000 nM | 25 to 50% | ≤ 10% |
| CC(C)(NC(=O)C(=O)Nc1c(F)cccc1F)C(=O)N[C@@H](CCC(=O)O)C(=O)COc1c(F)c(F)cc(F)c1F [Example 12, (S)-4-(2-(2-((2,6-Difluorophenyl)amino)-2-oxoacetamido)-2-methylpropanamido)-5-oxo-6-(2,3,5,6-tetrafluorophenoxy)hexanoic acid] | ≤ 10 nM | ≥ 1000 nM | ≥ 1000 nM | ≥ 1000 nM | > 90% | ≤ 10% |
